Key:
Experiment in all cases: radiometric filter-binding kinase assay
[1] = test system: AKT1 (human), P31749 [S473D]; settings: ATP 5 µM
PAK4 (human) = PAK4 (human) (UniProt O96013); settings: compound 10.0 µM; ATP 5 µM
CDK2 CCNA2 (human) = CDK2 CCNA2 (human) (UniProt P24941+P20248); settings: ATP 20 µM
[2] = test system: RPS6KB1 (human), P23443 [T412E]; settings: ATP 20 µM
IKBKB (human) = IKBKB (human) (UniProt O14920); settings: ATP 5 µM
MKNK1 (human) = MKNK1 (human) (UniProt Q9BUB5); settings: ATP 50 µM
PRKCA (human) = PRKCA (human) (UniProt P17252); settings: ATP 20 µM
MAPK1 (human) = MAPK1 (human) (UniProt P28482); settings: ATP 50 µM
PKN2 (human) = PKN2 (human) (UniProt Q16513); settings: ATP 5 µM
DYRK3 (human) = DYRK3 (human) (UniProt O43781); settings: ATP 5 µM
PDPK1 (human) = PDPK1 (human) (UniProt O15530)
PDPK1 (human), sequence (O15530 whole entry, looked up): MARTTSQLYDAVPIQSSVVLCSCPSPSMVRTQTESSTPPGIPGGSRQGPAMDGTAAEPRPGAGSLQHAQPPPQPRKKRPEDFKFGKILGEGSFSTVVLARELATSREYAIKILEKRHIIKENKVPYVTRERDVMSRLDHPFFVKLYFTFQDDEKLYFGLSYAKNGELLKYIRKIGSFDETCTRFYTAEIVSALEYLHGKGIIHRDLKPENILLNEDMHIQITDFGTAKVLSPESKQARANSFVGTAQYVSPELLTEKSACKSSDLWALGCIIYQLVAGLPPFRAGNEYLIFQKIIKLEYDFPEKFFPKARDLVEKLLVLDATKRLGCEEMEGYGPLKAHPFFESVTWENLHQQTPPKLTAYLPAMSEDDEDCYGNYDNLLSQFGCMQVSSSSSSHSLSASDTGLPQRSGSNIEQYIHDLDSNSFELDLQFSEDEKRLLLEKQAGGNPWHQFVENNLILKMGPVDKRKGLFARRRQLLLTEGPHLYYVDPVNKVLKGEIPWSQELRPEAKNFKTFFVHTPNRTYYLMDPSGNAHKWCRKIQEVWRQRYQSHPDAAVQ

PAK7 (human) = PAK7 (human) (UniProt Q9P286); settings: ATP 20 µM
MAPKAPK5 (human) = MAPKAPK5 (human) (UniProt Q8IW41); settings: ATP 20 µM
NEK7 (human) = NEK7 (human) (UniProt Q8TDX7); settings: ATP 20 µM
NEK7 (human), sequence (Q8TDX7 whole entry, looked up): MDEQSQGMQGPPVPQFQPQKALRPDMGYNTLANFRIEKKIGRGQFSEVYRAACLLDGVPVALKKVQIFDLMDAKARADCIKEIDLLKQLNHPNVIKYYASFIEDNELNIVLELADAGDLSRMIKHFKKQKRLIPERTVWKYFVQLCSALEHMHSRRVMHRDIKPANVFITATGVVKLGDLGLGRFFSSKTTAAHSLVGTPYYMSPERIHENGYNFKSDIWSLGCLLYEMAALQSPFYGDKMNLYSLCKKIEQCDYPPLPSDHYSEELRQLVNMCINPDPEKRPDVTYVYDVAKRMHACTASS

CHEK2 (human) = CHEK2 (human) (UniProt O96017); settings: ATP 20 µM
CHEK2 (human), sequence (O96017 whole entry, looked up): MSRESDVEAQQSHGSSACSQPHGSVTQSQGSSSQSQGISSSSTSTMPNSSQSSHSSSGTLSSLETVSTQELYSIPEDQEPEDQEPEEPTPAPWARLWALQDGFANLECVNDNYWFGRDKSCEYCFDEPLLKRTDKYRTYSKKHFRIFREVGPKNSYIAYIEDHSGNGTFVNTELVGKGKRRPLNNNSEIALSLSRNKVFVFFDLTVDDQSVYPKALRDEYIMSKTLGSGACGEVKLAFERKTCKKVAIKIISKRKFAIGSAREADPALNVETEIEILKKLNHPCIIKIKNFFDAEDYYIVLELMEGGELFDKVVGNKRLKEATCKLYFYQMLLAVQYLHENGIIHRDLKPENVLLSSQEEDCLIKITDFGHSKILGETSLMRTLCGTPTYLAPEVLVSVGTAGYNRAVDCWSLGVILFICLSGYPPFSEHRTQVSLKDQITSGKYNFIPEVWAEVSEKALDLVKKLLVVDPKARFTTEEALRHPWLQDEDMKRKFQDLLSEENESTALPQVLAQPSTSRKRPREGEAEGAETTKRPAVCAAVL

HIPK2 (human) = HIPK2 (human) (UniProt Q9H2X6); settings: ATP 5 µM
PRKCG (human) = PRKCG (human) (UniProt P05129); settings: ATP 5 µM
SRPK1 (human) = SRPK1 (human) (UniProt Q96SB4); settings: ATP 50 µM
DYRK2 (human) = DYRK2 (human) (UniProt Q92630); settings: ATP 50 µM
MAPK14 (human) = MAPK14 (human) (UniProt Q16539); settings: ATP 50 µM
CAMKK2 (human) = CAMKK2 (human) (UniProt Q96RR4); settings: ATP 20 µM
CAMKK2 (human), sequence (Q96RR4 whole entry, looked up): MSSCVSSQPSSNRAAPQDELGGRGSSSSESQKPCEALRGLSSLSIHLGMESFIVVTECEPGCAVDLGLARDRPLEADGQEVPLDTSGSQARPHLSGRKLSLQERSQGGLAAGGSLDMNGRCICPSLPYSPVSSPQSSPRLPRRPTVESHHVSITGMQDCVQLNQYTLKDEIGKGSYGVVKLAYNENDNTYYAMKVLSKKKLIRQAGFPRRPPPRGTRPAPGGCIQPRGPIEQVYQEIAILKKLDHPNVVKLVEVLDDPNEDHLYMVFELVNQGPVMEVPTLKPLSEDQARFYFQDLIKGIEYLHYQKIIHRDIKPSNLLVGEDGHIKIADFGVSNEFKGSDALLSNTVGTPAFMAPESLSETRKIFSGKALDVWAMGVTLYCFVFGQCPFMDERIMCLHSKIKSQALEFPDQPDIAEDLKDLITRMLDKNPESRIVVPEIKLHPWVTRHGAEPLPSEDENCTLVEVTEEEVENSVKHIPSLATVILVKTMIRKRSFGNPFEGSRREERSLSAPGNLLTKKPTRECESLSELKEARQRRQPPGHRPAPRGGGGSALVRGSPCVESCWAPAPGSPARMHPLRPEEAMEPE

[3] = molecular target: CSNK2A1 or CSNK2A2 (human) (UniProt P19784+P68400); settings: compound 10.0 µM; ATP 5 µM
[4] = molecular target: PRKACA or PRKACB or PRKACG (human) (UniProt P22694+P22612+P17612); settings: ATP 20 µM
AURKB (human) = AURKB (human) (UniProt Q96GD4); settings: ATP 20 µM
PIM3 (human) = PIM3 (human) (UniProt Q86V86); settings: ATP 20 µM
MAPK3 (human) = MAPK3 (human) (UniProt P27361); settings: ATP 5 µM
MAPK10 (human) = MAPK10 (human) (UniProt P53779); settings: ATP 50 µM
CaMK1 (human) = CaMK1 (human) (UniProt Q14012); settings: ATP 50 µM
CaMK1 (human), sequence (Q14012 whole entry, looked up): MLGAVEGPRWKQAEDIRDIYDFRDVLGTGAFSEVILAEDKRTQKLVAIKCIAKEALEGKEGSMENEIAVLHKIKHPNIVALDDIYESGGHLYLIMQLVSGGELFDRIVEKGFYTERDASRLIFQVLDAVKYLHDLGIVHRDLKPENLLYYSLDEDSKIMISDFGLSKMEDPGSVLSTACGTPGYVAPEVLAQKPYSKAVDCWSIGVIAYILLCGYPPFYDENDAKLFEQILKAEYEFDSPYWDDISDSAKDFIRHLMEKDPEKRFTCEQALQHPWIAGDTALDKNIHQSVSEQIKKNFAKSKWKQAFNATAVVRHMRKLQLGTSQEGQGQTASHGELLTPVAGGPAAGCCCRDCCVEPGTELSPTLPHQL

GSK3B (human) = GSK3B (human) (UniProt P49841); settings: ATP 5 µM
GSK3B (human), sequence (P49841 whole entry, looked up): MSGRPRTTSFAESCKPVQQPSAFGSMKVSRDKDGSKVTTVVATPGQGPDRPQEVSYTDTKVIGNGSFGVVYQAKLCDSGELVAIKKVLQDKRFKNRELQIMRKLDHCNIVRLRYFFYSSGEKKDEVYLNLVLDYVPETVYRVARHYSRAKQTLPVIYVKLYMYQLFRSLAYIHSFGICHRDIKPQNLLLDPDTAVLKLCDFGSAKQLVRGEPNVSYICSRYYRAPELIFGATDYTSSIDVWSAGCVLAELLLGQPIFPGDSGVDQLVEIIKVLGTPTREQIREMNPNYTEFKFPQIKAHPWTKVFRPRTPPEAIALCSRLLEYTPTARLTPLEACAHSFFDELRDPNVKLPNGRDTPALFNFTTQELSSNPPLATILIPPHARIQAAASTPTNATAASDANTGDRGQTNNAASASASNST

MAPK13 (human) = MAPK13 (human) (UniProt O15264); settings: ATP 5 µM
MARK3 (human) = MARK3 (human) (UniProt P27448); settings: compound 10.0 µM; ATP 5 µM
ROCK2 (human) = ROCK2 (human) (UniProt O75116); settings: ATP 20 µM
MAPK8 (human) = MAPK8 (human) (UniProt P45983); settings: ATP 20 µM
[5] = test system: SGK1 (human), O00141 [S422D]; settings: ATP 20 µM
SGK1 (human), O00141 [S422D], sequence (O00141 whole entry S422D, looked up): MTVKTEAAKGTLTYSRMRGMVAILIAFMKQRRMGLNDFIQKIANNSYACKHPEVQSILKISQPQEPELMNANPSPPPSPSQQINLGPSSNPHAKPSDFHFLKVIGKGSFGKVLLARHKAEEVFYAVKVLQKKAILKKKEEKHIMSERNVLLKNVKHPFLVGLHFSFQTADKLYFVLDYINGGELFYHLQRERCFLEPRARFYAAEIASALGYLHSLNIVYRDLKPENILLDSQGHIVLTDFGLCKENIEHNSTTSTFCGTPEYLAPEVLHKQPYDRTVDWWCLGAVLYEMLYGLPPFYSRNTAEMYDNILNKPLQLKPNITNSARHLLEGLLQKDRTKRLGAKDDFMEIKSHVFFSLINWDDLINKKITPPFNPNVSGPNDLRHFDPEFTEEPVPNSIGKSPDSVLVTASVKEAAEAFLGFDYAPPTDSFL

MAPKAPK3 (human) = MAPKAPK3 (human) (UniProt Q16644); settings: compound 1.0 µM; ATP 20 µM
CAMKK1 (human) = CAMKK1 (human) (UniProt Q8N5S9); settings: compound 1.0 µM; ATP 20 µM
CSK (human) = CSK (human) (UniProt P41240); settings: compound 1.0 µM; ATP 20 µM
MELK (human) = MELK (human) (UniProt Q14680); settings: compound 1.0 µM; ATP 50 µM

Work on `N#CC(=C(\N)Sc1ccccc1N)/C(C#N)=C(/N)Sc1ccccc1N` yielded a residual activity ([1]; compound 10.0 µM) of 76%, a residual activity (PAK4 (human)) of 94% and a residual activity (CDK2 CCNA2 (human); compound 10.0 µM) of 86%. For the same compound, the residual activity ([2]; compound 10.0 µM) was 93%, the residual activity (IKBKB (human); compound 10.0 µM) was 118% and the residual activity (MKNK1 (human); compound 10.0 µM) was 78%. It also gave a residual activity (PRKCA (human); compound 10.0 µM) of 95%, a residual activity (MAPK1 (human); compound 10.0 µM) of 68% and a residual activity (PKN2 (human); compound 10.0 µM) of 85%. It also gave a residual activity (DYRK3 (human); compound 10.0 µM) of 77%, a residual activity (PDPK1 (human); compound 10.0 µM, ATP 20 µM) of 77% and a residual activity (PDPK1 (human); compound 10.0 µM, ATP 50 µM) of 77%. For the same compound, the residual activity (PAK7 (human); compound 10.0 µM) was 86%, the residual activity (MAPKAPK5 (human); compound 10.0 µM) was 92% and the residual activity (NEK7 (human); compound 10.0 µM) was 97%. For the same compound, the residual activity (CHEK2 (human); compound 10.0 µM) was 98%, the residual activity (HIPK2 (human); compound 10.0 µM) was 97% and the residual activity (PRKCG (human); compound 10.0 µM) was 78%. The residual activity (SRPK1 (human); compound 10.0 µM) was 102%, the residual activity (DYRK2 (human); compound 10.0 µM) was 84% and the residual activity (MAPK14 (human); compound 10.0 µM) was 77%. It also gave a residual activity (CAMKK2 (human); compound 10.0 µM) of 92%, a residual activity [3] of 99% and a residual activity ([4]; compound 10.0 µM) of 93%. It also gave a residual activity (AURKB (human); compound 10.0 µM) of 86%, a residual activity (PIM3 (human); compound 10.0 µM) of 63% and a residual activity (MAPK3 (human); compound 10.0 µM) of 72%. It also gave a residual activity (MAPK10 (human); compound 10.0 µM) of 98%, a residual activity (CaMK1 (human); compound 10.0 µM) of 69% and a residual activity (GSK3B (human); compound 10.0 µM) of 82%. It also gave a residual activity (MAPK13 (human); compound 10.0 µM) of 93%, a residual activity (MARK3 (human)) of 95% and a residual activity (ROCK2 (human); compound 10.0 µM) of 81%. For the same compound, the residual activity (MAPK8 (human); compound 10.0 µM) was 90% and the residual activity ([5]; compound 10.0 µM) was 72%.
In the case of `O=S(=O)(NCCNC/C=C/c1ccc(Br)cc1)c1cccc2cnccc12`, the residual activity ([1]; compound 1.0 µM) is reported as 14%, the residual activity (CDK2 CCNA2 (human); compound 1.0 µM) is reported as 75% and the residual activity ([2]; compound 1.0 µM) is reported as 11%. For the same compound, the residual activity (IKBKB (human); compound 1.0 µM) was 98%, the residual activity (MKNK1 (human); compound 1.0 µM) was 90% and the residual activity (PRKCA (human); compound 1.0 µM) was 80%. The residual activity (MAPK1 (human); compound 1.0 µM) was 88%, the residual activity (PKN2 (human); compound 1.0 µM) was 7% and the residual activity (DYRK3 (human); compound 1.0 µM) was 65%. The residual activity (PDPK1 (human); compound 1.0 µM, ATP 20 µM) was 91%, the residual activity (PDPK1 (human); compound 1.0 µM, ATP 50 µM) was 56% and the residual activity (PAK7 (human); compound 1.0 µM) was 84%. For the same compound, the residual activity (MAPKAPK5 (human); compound 1.0 µM) was 89%, the residual activity (NEK7 (human); compound 1.0 µM) was 99% and the residual activity (CHEK2 (human); compound 1.0 µM) was 69%. For the same compound, the residual activity (HIPK2 (human); compound 1.0 µM) was 101%, the residual activity (PRKCG (human); compound 1.0 µM) was 55% and the residual activity (MAPKAPK3 (human)) was 105%. It also gave a residual activity (SRPK1 (human); compound 1.0 µM) of 93%, a residual activity (DYRK2 (human); compound 1.0 µM) of 105% and a residual activity (MAPK14 (human); compound 1.0 µM) of 99%. It also gave a residual activity (CAMKK2 (human); compound 1.0 µM) of 102%, a residual activity (CAMKK1 (human)) of 102% and a residual activity ([4]; compound 1.0 µM) of 15%. The residual activity (AURKB (human); compound 1.0 µM) was 70%, the residual activity (PIM3 (human); compound 1.0 µM) was 91% and the residual activity (MAPK3 (human); compound 1.0 µM) was 90%. For the same compound, the residual activity (CSK (human)) was 89%, the residual activity (MAPK10 (human); compound 1.0 µM) was 93% and the residual activity (MELK (human)) was 43%. For the same compound, the residual activity (CaMK1 (human); compound 1.0 µM) was 101%, the residual activity (GSK3B (human); compound 1.0 µM) was 88% and the residual activity (MAPK13 (human); compound 1.0 µM) was 98%. For the same compound, the residual activity (ROCK2 (human); compound 1.0 µM) was 6%, the residual activity (MAPK8 (human); compound 1.0 µM) was 88% and the residual activity ([5]; compound 1.0 µM) was 62%.
